Like-named read-outs stand apart in the source and are kept apart here.
How the values were obtained:
[1] = tested on: acetic acid-induced writhing; assay: Inhibition of acetic acid-induced writhing in mice; assay type: in vivo, Male ICR mice; details: dose of 10 mg/kg, subcutaneous, 30 min before acetic acid; writhes over 15 min
Excerpt: 12: 525-562; Ramabadran and Bansinath (1986) Pharm. Res. 3: 263-270]. Intraperitoneal administration of dilute acetic acid solution causes a writhing behavior in mice. A writhe is defined as a contraction of the abdominal muscles accompanied by an extension of the forelimbs and elongation of the body. The number of writhes observed in the presence and absence of test compounds is counted to determine the analgesic activity of the compounds.
Male ICR mice, 20-40 grams in weight, were weighed and placed in individual observation chambers (usually a 4000 ml beaker) with a fine layer of rodent bedding at the bottom. To determine the activity and potency of test compounds, different doses of the compound solution or vehicle were injected subcutaneously in the back of the neck 30 minutes prior to administration of acetic acid solution. After administration of the compound or vehicle control, mice were returned to their individual observation chambers awaiting the intraperitoneal administration of acetic acid solution. Thirty minutes later, 10 ml/kg of a 0.6% (v/v) acetic acid solution was then injected into the right lower quadrant of the abdomen. Immediately after the injection, the mouse was returned to its observation chamber and the recording of the number of writhes is begun immediately. The number of writhes was counted over a 15-min period starting from the time of acetic acid injection. Raw data were analyzed using a one-way ANOVA followed by Dunnett's post-tests.
For dose-response analysis, raw data were converted to % maximum possible effect (% MPE) using the formula: % MPE=((Wc−Wv)/(0−Wv))×100, where Wc is the number of writhes in compound-treated mice and Wv is the mean number of writhes in vehicle-treated mice. The dose which elicited 50% attenuation of hypersensitivity (ED50) was determined using linear regression analysis. (Tallarida & Murray, 1987).

[2] = target: human CB1 receptor (hCB1) (Homo sapiens, UniProt P21554); assay: cAMP assay (LANCE TR-FRET) in CHO-K1 cells stably expressing hCB1; assay type: cell-based
Chain of human CB1 receptor (hCB1) (P21554 whole entry): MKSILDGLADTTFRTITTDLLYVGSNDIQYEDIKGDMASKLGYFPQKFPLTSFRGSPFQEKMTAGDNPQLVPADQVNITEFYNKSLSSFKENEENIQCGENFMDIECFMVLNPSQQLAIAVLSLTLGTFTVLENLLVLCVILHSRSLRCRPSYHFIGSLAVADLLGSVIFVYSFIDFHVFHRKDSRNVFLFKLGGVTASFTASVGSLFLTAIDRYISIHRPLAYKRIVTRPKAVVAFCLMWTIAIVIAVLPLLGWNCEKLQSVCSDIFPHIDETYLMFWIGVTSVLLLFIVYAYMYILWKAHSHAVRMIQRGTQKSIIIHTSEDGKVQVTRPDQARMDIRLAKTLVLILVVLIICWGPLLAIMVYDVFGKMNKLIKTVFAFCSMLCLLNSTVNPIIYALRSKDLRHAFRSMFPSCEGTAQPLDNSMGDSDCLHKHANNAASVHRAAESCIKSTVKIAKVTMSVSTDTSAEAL
Protocol: (§1) The ability of compounds to act as agonists or inverse agonists at human CB2 and CB1 receptors (hCB2, hCB1, respectively) and at the rat CB2 receptor (rCB2) was determined by measuring changes in intracellular cAMP levels. Chinese Hamster Ovary (CHO-K1) cell lines stably expressing hCB2 (Genebank: X74328) or hCB1 (Genebank: X54937) were purchased from Euroscreen (Gosselies, Belgium). The rat CB2 receptor was expressed from genomic DNA (provided by M. Abood, California Pacific Medical Center) in CHO-K1 cells from expression plasmid vector, pcDNA3.1.
(§2) Receptor mediated responses were determined by measuring changes in intracellular cAMP using LANCE cAMP detection kit (cat #AD0264, Perkin Elmer, Wellesley, Mass.) based on time-resolved fluorescence resonance energy transfer (TR-FRET).
(§3) On the day of the experiment, cells were spun at low speed for 5 min at room temperature. […] Cell clumps were removed by filtering through cell strainer 40 μm (BD Falcon, Discovery Labware, Bedford, Mass.) and diluted to 2×10^5 cells/mL. Antibody supplied with the LANCE cAMP immunoassay kit was then added according to the manufacturer's instructions. An aliquot of cells was taken for un-induced controls. […] Cells were then incubated for 30 min at room temperature prior to adding to Proxiplates containing test compounds (final DMSO concentration was less than 0.5%) with a Multidrop bulk dispenser, followed by a sixty minute incubation at room temperature. The response was stopped by addition of the detection mix supplied with the LANCE kit. The reagents were allowed to equilibrate for three hours prior to reading on an Envision multi-mode detector (Perkin-Elmer). TR-FRET was measured using a 330-380 nm excitation filter, a 665 nm emission filter, dichroic mirror 380 nm and Z=1 mm. Cyclic AMP concentrations in each well were back-calculated from a cAMP standard curve run concurrently during each assay. Each plate contained 16 wells of forskolin stimulated cells and 16 wells of forskolin plus CP55,940-treated cells. […] Concentrations of cAMP were expressed as a percent of the difference of these two groups of wells.

[3] = target: T1, human CB2 receptor (hCB2) (Homo sapiens, UniProt P34972); assay: cAMP assay (LANCE TR-FRET) in CHO-K1 cells stably expressing hCB2; assay type: cell-based
T1 construct: host or cells: CHO-K1
T1 sequence (P34972 whole entry): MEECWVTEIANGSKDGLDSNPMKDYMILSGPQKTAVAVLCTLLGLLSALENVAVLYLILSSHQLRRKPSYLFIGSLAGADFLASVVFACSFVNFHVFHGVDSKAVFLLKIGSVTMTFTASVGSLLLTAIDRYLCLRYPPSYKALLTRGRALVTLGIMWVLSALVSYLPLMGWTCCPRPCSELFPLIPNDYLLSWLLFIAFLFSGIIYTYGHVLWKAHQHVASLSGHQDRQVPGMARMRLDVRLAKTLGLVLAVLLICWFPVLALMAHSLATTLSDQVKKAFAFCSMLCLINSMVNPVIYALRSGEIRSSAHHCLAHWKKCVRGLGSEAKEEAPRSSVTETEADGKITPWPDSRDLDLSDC
Protocol: as §1, §2, §3

[4] = tested on: CFA-induced thermal hyperalgesia; assay: CFA model of acute inflammation: thermal hyperalgesia (paw withdrawal latency); assay type: in vivo, Male Sprague-Dawley rats; details: for Attenuation (sec.) of CFA-induced thermal hyperalgesia (mean PWL ± SEM): p.o., vehicle 4.3 ± 0.2, naive 10.3 ± 0.3
Protocol: The anti-hyperalgesic effects of test compounds in the Complete Freund's Adjuvant (CFA) model of inflammatory pain were examined as described below. Male Sprague-Dawley rats (Hsd:Sprague-Dawley®™SD®™, Harlan, Indianapolis, Ind.) weighing about 200 grams, were housed three per cage. Test compound and ibuprofen (Sigma, cat 11892) were each prepared in a mixture of 1:1:18 ethanol:cremophor EL:water. Groups of six animals were subjected to local inflammation induced by 0.1 mL CFA (Sigma-Aldrich, cat F5881, Mycobacterium tuberculosis 1 mg/ml) injected subcutaneously into the plantar surface of the left paw.
Assessment of thermal hyperalgesia: Paw withdrawal latencies (PWLs) in response to a noxious thermal stimulus (Model #37370, Ugo Basile, Cat #55370) were obtained before and 24 hours after intraplantar administration of CFA. Rats were placed in plexi-glass chambers (10×21×14 cm) on top of a glass platform (un-heated) and allowed to acclimate for approximately 15 min before testing. Each rat received 3 trials separated by approx. 3 min each and these scores were averaged to provide the final PWL. The mean and standard error of the mean (SEM) were determined for the injured paw in each treatment group. Significant reductions in PWLs (i.e., increased sensitivity to a noxious stimulus) were interpreted as the presence of thermal hyperalgesia. To avoid tissue damage, a cut-off latency of 20 seconds was employed. These behavioral assessments were carried-out under blinded conditions (i.e., compound preparation and animal dosing was performed by someone other than the person carrying out the behavioral assessments). Ibuprofen (100 mg/kg, p.o.) was used as the positive control. The mean and SEM were determined for the injured and normal paws for each treatment group. CFA produces a significant increase in sensitivity to noxious thermal stimuli as PWLs decreased from a pre-CFA baseline of 10.3±0.3 sec to a value of 4.3±0.2 sec (p≦0.05, paired t-test). […] Compound 1-10 at a dose of 3 mg/kg produced a significant increase in PWLs (p<0.01, Bonferroni post-test) that persisted for at least 4 hours post-dosing.

rat CB2 receptor (rCB2) = target: T2, rat CB2 receptor (rCB2) (Rattus norvegicus, UniProt Q9QZN9); assay: cAMP assay (LANCE TR-FRET) in CHO-K1 cells expressing rat CB2; assay type: cell-based
T2 construct: expressed in transfected cells; host or cells: CHO-K1 (plasmid pcDNA3.1)
T2 sequence (Q9QZN9 1-360): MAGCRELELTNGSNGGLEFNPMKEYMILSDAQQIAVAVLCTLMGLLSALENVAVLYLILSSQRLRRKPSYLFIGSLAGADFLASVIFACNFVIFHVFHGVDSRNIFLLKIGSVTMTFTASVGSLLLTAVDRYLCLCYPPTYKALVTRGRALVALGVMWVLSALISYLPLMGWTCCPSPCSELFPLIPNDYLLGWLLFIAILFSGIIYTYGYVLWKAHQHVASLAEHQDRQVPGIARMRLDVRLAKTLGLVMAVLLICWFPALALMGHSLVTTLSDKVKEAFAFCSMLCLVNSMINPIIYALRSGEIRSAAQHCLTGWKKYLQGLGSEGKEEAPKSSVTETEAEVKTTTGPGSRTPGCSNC
Protocol: as §1, §2, §3

| Compound | EC50 [2] | EC50 [3] | EC50 (rat CB2 receptor (rCB2)) | also measured |
| --- | --- | --- | --- | --- |
| CNC(=O)[C@@H](NC(=O)c1nc(-c2ccccc2)n2c1CCCCC2)C(C)(C)C [Compound 1-1, (S)—N-(3,3-dimethyl-1-(methylamino)-1-oxobutan-2-yl)-3-phenyl-6,7,8,9-tetrahydro-5H-imidazo[1,5-a]azepine-1-carboxamide] | 10 to 100 nM | 0.1 to 10 nM | – | % maximum possible effect (% MPE), writhing [1]: greater than fifty |
| CNC(=O)[C@@H](NC(=O)c1nc(-c2ccc(F)c(F)c2)n2c1CCCCC2)C(C)(C)C [Compound 1-2, (S)-3-(3,4-difluorophenyl)-N-(3,3-dimethyl-1-(methylamino)-1-oxobutan-2-yl)-6,7,8,9-tetrahydro-5H-imidazo[1,5-a]azepine-1-carboxamide] | 0.1 to 10 nM | 0.1 to 10 nM | – | % maximum possible effect (% MPE), writhing [1]: greater than fifty |
| CNC(=O)[C@@H](NC(=O)c1nc(-c2cc(F)ccc2F)n2c1CCCCC2)C(C)(C)C [Compound 1-3, (S)-3-(2,5-difluorophenyl)-N-(3,3-dimethyl-1-(methyl-amino)-1-oxobutan-2-yl)-6,7,8,9-tetrahydro-5H-imidazo[1,5-a]azepine-1-carboxamide] | 0.1 to 10 nM | 0.1 to 10 nM | – | % maximum possible effect (% MPE), writhing [1]: greater than fifty |
| CNC(=O)[C@@H](NC(=O)c1nc(-c2ccc(F)c(F)c2)n2c1COCCC2)C(C)(C)C [Compound 1-10, (S)-3-(3,4-difluorophenyl)-N-(3,3-dimethyl-1-(methylamino)-1-oxobutan-2-yl)-5,6,7,9-tetrahydroimidazo[5,1-c][1,4]oxazepine-1-carboxamide] | 10 to 100 nM | 10 to 100 nM | – | Persistence of significant increase in PWLs post-dosing ([4]; 3 mg/kg p.o., p<0.01, Bonferroni post-test): at least 4 hours; Attenuation (sec.) of CFA-induced thermal hyperalgesia (mean PWL ± SEM) ([4]; 3 mg/kg, 1 hr): 6.5 ± 0.5 s; Attenuation (sec.) of CFA-induced thermal hyperalgesia (mean PWL ± SEM) ([4]; 3 mg/kg, 4 hr): 6.3 ± 0.3 s; Reversal of CFA-induced thermal hyperalgesia ([4]; oral (p.o.) administration): significant reversal |
| CNC(=O)[C@@H](NC(=O)c1nc(-c2ccccc2)n2c1CCN(C)CC2)C(C)(C)C [Compound 3-9, (S)-N-(3,3-dimcthyl-1-(methylamino)-1-oxobutan-2-yl)-7-methyl-3-phenyl-6,7,8,9-tetrahydro-5H-imidazo[1,5-d][1,4]diazepine-1-carboxamide] | > 10000 nM | > 10000 nM | > 10000 nM | – |
| CNC(=O)[C@@H](NC(=O)c1nc(-c2ccccc2)n2c1CCN(CC(C)C)CC2)C(C)(C)C [Compound 3-10, (S)-N-(3,3-dimethyl-1-(methylamino)-1-oxobutan-2-yl)-7-isobutyl-3-phenyl-6,7,8,9-tetrahydro-5H-imidazo[1,5-d][1,4]diazepine-1-carboxamide] | – | – | 10 to 100 nM | – |
| CNC(=O)[C@@H](NC(=O)c1nc(-c2ccccc2)n2c1CCN(CC1CC1)CC2)C(C)(C)C [Compound 3-11, (S)-7-(cyclopropylmethyl)-N-(3,3-dimethyl-1-(methylamino)-1-oxobutan-2-yl)-3-phenyl-6,7,8,9-tetrahydro-5H-imidazo[1,5-d][1,4]diazepine-1-carboxamidc] | > 10000 nM | > 10000 nM | 0.1 to 10 nM | – |
| CNC(=O)[C@@H](NC(=O)c1nc(-c2ccccc2)n2c1CCN(C(C)=O)CC2)C(C)(C)C [Compound 3-12, (S)-7-acetyl-N-(3,3-dimethyl-1-(methylamino)-1-oxobutan-2-yl)-3-phenyl-6,7,8,9-tetrahydro-5H-imidazo[1,5-d][1,4]diazepine-1-carboxamide] | > 10000 nM | > 10000 nM | > 10000 nM | – |
| CCS(=O)(=O)N1CCc2c(C(=O)N[C@H](C(=O)NC)C(C)(C)C)nc(-c3ccccc3)n2CC1 [Compound 3-14, (S)-N-(3,3-dimethyl-1-(methylamino)-1-oxobutan-2-yl)-7-(ethylsulfonyl)-3-phenyl-6,7,8,9-tetrahydro-5H-imidazo[1,5-d][1,4]diazepine-1-carboxamide] | > 10000 nM | > 10000 nM | 10 to 100 nM | – |
| CNC(=O)[C@@H](NC(=O)c1nc(-c2ccccc2)n2c1CCN(S(=O)(=O)c1ccc(F)cc1)CC2)C(C)(C)C [Compound 3-15, (S)-N-(3,3-dimethyl-1-(methylamino)-1-oxobutan-2-yl)-7-(4-fluorophenyl-sulfonyl)-3-phenyl-6,7,8,9-tetrahydro-5H-imidazo[1,5-d][1,4]diazepine-1-carboxamide] | – | – | 0.1 to 10 nM | – |
| Cc1nnc(-c2nc(-c3ccc(F)c(F)c3)n3c2CCCCC3)o1 [Compound 4-1, 2-(3-(3,4-difluorophenyl)-6,7,8,9-tetrahydro-5H-imidazo[1,5-a]azepin-1-yl)-5-methyl-1,3,4-oxadiazole] | – | – | – | EC50 (rat CB2 receptor (rCB2); above the detectable range, read-out: EC50 rat CB2 receptor): > 10000 nM; EC50 ([3]; text statement b297, read-out: EC50 human CB2 receptor): > 10000 nM |
| CC(C)Cc1ccc(C(C)C(=O)O)cc1 (stereo not drawn) [Ibuprofen, reference compound] | – | – | – | Attenuation (sec.) of CFA-induced thermal hyperalgesia (mean PWL ± SEM) ([4]; 100 mg/kg, 1 hr): 7.6 ± 0.7 s; Attenuation (sec.) of CFA-induced thermal hyperalgesia (mean PWL ± SEM) ([4]; 100 mg/kg, 4 hr): 7.7 ± 0.6 s |
